Paper PMC4542539, “The Multiple DSF-family QS Signals are Synthesized from Carbohydrate and Branched-chain Amino Acids via the FAS Elongation Cycle” (Scientific Reports, 2015)

Target: RpfF (Xanthomonas campestris, UniProt Q7CLS3)
Experiment: HPLC and LC-MS of product formed by purified His-tagged RpfF
Assay type: biochemical
Conditions: formed from 3-hydroxydodecanoyl-ACP (dehydratase and thioesterase); Tris-HCl pH 7.5, ATP, Mg2+, Vibrio harveyi AasS; 37 °C, 30 min

Chain of RpfF (Q7CLS3 entry or part of it): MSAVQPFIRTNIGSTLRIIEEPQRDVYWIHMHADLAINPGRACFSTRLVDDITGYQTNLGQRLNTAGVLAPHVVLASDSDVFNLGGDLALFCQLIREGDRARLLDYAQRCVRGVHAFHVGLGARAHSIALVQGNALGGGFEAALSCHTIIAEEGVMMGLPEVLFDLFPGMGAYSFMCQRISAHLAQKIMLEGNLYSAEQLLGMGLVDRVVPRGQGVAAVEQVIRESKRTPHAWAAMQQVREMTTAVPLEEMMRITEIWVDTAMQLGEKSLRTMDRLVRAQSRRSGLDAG

With `CCCCCCCCC/C=C\C(=O)O` [BDSF, cis-2-dodecenoic acid] the “HPLC and LC-MS of product formed by purified His-tagged RpfF” value was “detected in the reaction mixture containing RpfF and 3-OH-C12:0-ACP”.
